The test concerns the target SLC38A5 (Homo sapiens, UniProt Q8WUX1). The test can be described thus: inhibition of Li+-stimulated [3H]-serine uptake in HPAF-II and TXBR-100 cells (endogenous transporter). It counts as cell-based.

pIC50: −log10 of the molar value.

SLC38A5, sequence (Q8WUX1 whole entry): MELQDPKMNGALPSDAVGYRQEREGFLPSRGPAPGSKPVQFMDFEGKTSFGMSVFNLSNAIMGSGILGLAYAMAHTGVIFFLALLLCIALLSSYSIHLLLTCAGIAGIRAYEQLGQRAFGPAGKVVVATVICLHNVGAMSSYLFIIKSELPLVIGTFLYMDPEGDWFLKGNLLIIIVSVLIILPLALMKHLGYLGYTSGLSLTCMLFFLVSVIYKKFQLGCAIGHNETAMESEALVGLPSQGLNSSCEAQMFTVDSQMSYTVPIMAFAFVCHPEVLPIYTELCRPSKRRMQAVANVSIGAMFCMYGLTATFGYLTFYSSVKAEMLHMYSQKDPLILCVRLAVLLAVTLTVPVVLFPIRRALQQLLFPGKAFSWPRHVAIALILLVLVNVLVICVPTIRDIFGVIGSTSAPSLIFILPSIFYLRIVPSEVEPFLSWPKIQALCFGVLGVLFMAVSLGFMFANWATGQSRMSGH

Broadly, the pIC50 is −log10 of the IC50, conventionally taken in molar units. As to `O=C(Nc1ccc([N+](=O)[O-])cc1Cl)c1cc(Cl)ccc1O` [niclosamide], the pIC50 was 5.60 to 6.00.
